A word on the IC50: it is the midpoint of a concentration-inhibition curve. The low end stands for greater potency in that assay, the high end for weaker potency in that assay. The Kb is the affinity of an antagonist, worked out from how it opposes an agonist. A higher Kb goes with a less potent antagonist.

The target of experiment [1] is T1, guinea pig lung receptors (LTD4 receptor) (Cavia porcellus, UniProt Q2NNR5).
T1 construct: guinea pig lung receptors, isolated from guinea pig lung membrane; from tissue; host or cells: guinea pig lung membrane
T1 sequence (Q2NNR5 1-340): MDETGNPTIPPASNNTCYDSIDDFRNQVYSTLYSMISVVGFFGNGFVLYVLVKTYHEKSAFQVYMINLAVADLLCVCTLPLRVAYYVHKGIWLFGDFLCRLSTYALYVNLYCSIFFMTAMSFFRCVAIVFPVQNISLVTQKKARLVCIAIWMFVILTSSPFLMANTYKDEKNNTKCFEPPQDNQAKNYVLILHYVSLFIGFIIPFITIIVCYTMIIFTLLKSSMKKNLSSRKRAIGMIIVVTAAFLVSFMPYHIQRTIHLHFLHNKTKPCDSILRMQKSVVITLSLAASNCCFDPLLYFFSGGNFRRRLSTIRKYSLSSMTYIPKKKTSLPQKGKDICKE
Description: Leukotriene (LTD4) Receptor Binding Assay. As to conditions: LTD4 Antagonism; guinea pig lung membrane. The protocol: Leukotriene Receptor Binding Assay (12c01)
The in vitro LTD4 receptor binding assay is carried out as follows:
Specific binding of titrated LTD4 to a fixed number of guinea pig lung receptors, isolated from guinea pig lung membrane, is measured in the presence and absence of test compound. The initial screening dose (1×10^-5 M is considered active if the specific binding of LTD4 is reduced by 45% or more. Active compounds are tested in a dose-response manner to determine IC50 values.

Experiment [2] deals with T2, guinea pig ileum (LTD4-induced contraction) (Cavia porcellus, UniProt Q2NNR5).
T2 construct: Fresh segments of guinea pig ileum; from tissue; host or cells: guinea pig ileum segments
T2 sequence (Q2NNR5 1-340): T1 sequence (Q2NNR5 1-340)
Description: LTD4 Antagonism in Guinea Pig Ileum. It is filed as cell-based. The following applies: pA2, Schild analysis. The protocol:
LTD4 Antagonism in Guinea Pig Ileum
Fresh segments of guinea pig ileum were suspended in 2 ml. tissue baths containing oxygenated modified Tyrodes solution. After an equilibration period, an agonist dose-response curve was generated by exposing each tissue to 4 different LTD4 doses and measuring the ensuing contractile heights. The ileum segments were washed and rested between exposures to agonist. Following this, the tissues were incubated with a single concentration of test compound and the agonist dose-response procedure was repeated. The dose ratio is a measure of the antagonist's ability to shift the agonist dose-response curve to the right. It is derived as the concentration of agonist necessary to reach a given response level in the presence (A') versus the absence (A) of antagonist. For example, if the test concentration of compound had no effect on the agonist-induced response (A'=A) the dose-ratio would approximate 1. […] One dose-ratio value is determined for each strip of ileum used to test antagonist. […] Schild analysis examines the linearity of the function described by the dose-ratios written as log [(A'/A)-1] versus antagonist concentration. If the linearity is […] and the slope approximates 1, inhibition is considered to be competitive. The pA2 is the negative log of the antagonist concentration required to produce a dose-ratio of 2. This value is considered to be a measure of the affinity of the competitive antagonist.

Experiment [3] relates to LTD4 action on respiratory smooth muscle. Description: In Vivo Bronchoconstriction Assay (LTD4-induced). Set-up: species or system guinea pig. As to conditions: LTD4 Antagonism, guinea pigs, 2000 units LTD4 IV. On the procedure: The compounds are tested in vivo as follows. Adult male fasted Hartly guinea pigs weighing 300-350 g are pretreated with pyrilamine and indomethacin to block the bronchoconstricture effects of endogenous histamine and the synthesis of thromboxane A2 respectively. Compounds of the invention are administered IV or IG at approximate times prior to the IV administration of 2000 units of LTD4. Intratracheal pressure is monitored prior to and subsequent to LTD4 in animals anesthetized with pentobarbital and attached to a rodent respirator. Compounds which antagonize the direct component of LTD4 action on respiratory smooth muscle inhibit intratracheal insufflation pressure increases (P< or =0.05) caused by LTD4. FPL 55712 is used as a control.

Another experiment addresses T3, LTB4 receptor (Homo sapiens, UniProt Q15722).
T3 construct: Neutrophils were purified from venous blood of normal human donors; endogenous in cells; host or cells: human blood neutrophils
Description: LTB4 Receptor Binding Assay (human neutrophils). The following applies: LTB4 Antagonism, 0.6 nano M (3H) LTB4, 0° C., 45 minutes. The protocol:
Preparation of Human Neutrophils
Neutrophils were purified from venous blood of normal human donors using standard techniques of dextran sedimentation, centrifugation on Histopaque sterile solution (Sigma) and hypotonic lysis of erythrocytes (Boyum, A., Isolation of Leukocytes from Human Blood: Further Observations. Scand. J. Lab. Clin. Invest. 21 (Suppl. 97): 31, 1968). The purity of isolated neutrophils was ≥95%.
LTB4 Receptor Binding Assay
Neutrophils (4-6×10^6) in 1 ml Hanks' balanced salt solution containing 10 mM HEPES buffer (HBSS), pH 7.4 and […] nordihydroguaiaretic acid were incubated with 0.6 nano M (^3 H) LTB4 in the presence or absence of test compounds. The incubation was carried out at 0° C. for 45 minutes and terminated by adding 5 ml of ice-cold HBSS followed by rapid filtration of incubation mixture under vacuum through GF/C glass fiber filters. The filters were further washed with 10 ml HBSS and radioactivity was determined. Specific binding was defined as the difference between total binding and nonspecific binding which was not displaced by 10^-7 M unlabeled LTB4. All data refer to specific binding.

T3 sequence (Q15722 whole entry): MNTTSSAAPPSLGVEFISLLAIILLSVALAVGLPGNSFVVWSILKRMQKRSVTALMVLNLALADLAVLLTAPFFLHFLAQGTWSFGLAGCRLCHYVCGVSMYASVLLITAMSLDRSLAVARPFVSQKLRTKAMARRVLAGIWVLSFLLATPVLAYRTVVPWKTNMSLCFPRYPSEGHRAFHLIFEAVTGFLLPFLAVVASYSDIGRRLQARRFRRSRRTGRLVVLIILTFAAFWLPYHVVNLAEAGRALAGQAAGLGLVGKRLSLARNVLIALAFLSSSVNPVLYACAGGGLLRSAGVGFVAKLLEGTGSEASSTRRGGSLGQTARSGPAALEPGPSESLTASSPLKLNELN

In turn, `CCCc1c(OCCCSCC2COC(CCC(=O)O)(c3ccccc3)S2)ccc(C(C)=O)c1O` (stereo not drawn) [Example 70, 4-[[[3-(4-Acetyl-3-hydroxy-2-propylphenoxyl]propyl]thio]methyl]-2-phenyl-1,3-oxathiolane-2-propanoic acid] returned a 50% inhibitory concentration (IC50) in experiment [1] of 6240 nM. The same compound had a Kb in experiment [2] of 26.9 nM. Moreover, the “In Vivo Bronchoconstriction Assay (% Inhibition at 5 mpk. IV)” value in experiment [3] was 59.2%.

For `CCCc1c(OCCCSCC2CSC(CCC(=O)O)(CCC(=O)O)S2)ccc(C(C)=O)c1O` (stereo not drawn) [Example 35, 4-[[[3-(4-Acetyl-3-hydroxy-2-propylphenoxy)propyl]thio]methyl]-1,3-dithiolane-2,2-dipropanoic acid], the half-maximal inhibitory concentration (IC50) in experiment [1] amounted to 591 nM. This compound also gave a Kb in experiment [2] of 8.91 nM. In experiment [3], the “In Vivo Bronchoconstriction Assay (% Inhibition at 5 mpk. IV)” value was found to be 93%.

On LTB4 receptor, `CCCc1c(OCCCSCC2CSC(C)(CCCC(=O)O)S2)ccc(C(C)=O)c1OC` (stereo not drawn) [Example 81, 4-[[[3-(4-Acetyl-3-methoxy-2-propylphenoxy)propyl]thio]methyl]-2-methyl-1,3-dithiolane-2-butanoic acid] gave a half-maximal inhibitory concentration (IC50) of 60 nM.

Consider `CCCc1c(OCCCSCC2COC(C)(CCCC(=O)O)S2)ccc(C(C)=O)c1O` (stereo not drawn) [Example 84], for which, in experiment [1], the IC50 was determined as 7100 nM. Besides, in experiment [3], the “In Vivo Bronchoconstriction Assay (% Inhibition at 5 mpk. IV)” value stood at 85.1%.

`CCCc1c(OCCCSCC2CSC(C)(CCCC(=O)O)S2)ccc(C(C)=O)c1O` (stereo not drawn) [Example 61, 4-[[[3-(4-Acetyl-3-hydroxy-2-propylphenoxy)propyl]thio]methyl]-2-methyl-1,3-dithiolane-2-butanoic acid] showed an IC50 in experiment [1] of 5020 nM. The compound further had an antagonist equilibrium constant (Kb) in experiment [2] of 9.55 nM. The “In Vivo Bronchoconstriction Assay (% Inhibition at 5 mpk. IV)” value in experiment [3] stood at 95.6%.

In turn, `CCCc1c(OCCCSCC2COC(CCC(=O)O)(CCC(=O)O)S2)ccc(C(C)=O)c1O` (stereo not drawn) [Example 3, 4-[[[3-(4-Acetyl-3-hydroxy-2-propylphenoxy)propyl]thio]methyl]-1,3-oxathiolane-2,2-dipropanoic acid] displayed a half-inhibitory concentration (IC50) in experiment [1] of 3560 nM. In addition, the Kb in experiment [2] is 21.4 nM. The “In Vivo Bronchoconstriction Assay (% Inhibition at 5 mpk. IV)” value in experiment [3] worked out at 96.9%.

`CCCc1c(OCCCSCC2CSC(C)(CCC(=O)O)S2)ccc(C(C)=O)c1O` (stereo not drawn) [Example 50, 4-[[[3-(4-Acetyl-3-hydroxy-2-propylphenoxy)propyl]thio]methyl]-2-methyl-1,3-dithiolane-2-propanoic acid] registered an IC50 in experiment [1] of 9470 nM. For the same compound, the Kb in experiment [2] is 14.5 nM. Further, the “In Vivo Bronchoconstriction Assay (% Inhibition at 5 mpk. IV)” value in experiment [3] came out at 91.2%.

Compound `CCCc1c(OCCCSCC2COC(C)(CCC(=O)O)S2)ccc(C(C)=O)c1O` (stereo not drawn) [Example 38, 4-[[[3-(4-Acetyl-3-hydroxy-2-propylphenoxy)propyl]thio]methyl]-2-methyl-1,3-oxathiolane-2-propanoic acid] yielded an IC50 in experiment [1] of 9370 nM. In experiment [2], this compound had a Kb of 14.5 nM. Also, the “In Vivo Bronchoconstriction Assay (% Inhibition at 5 mpk. IV)” value in experiment [3] is listed as 87.2%.

(Values after patent US4808729A, “Leukotriene LTD4 and LTB4 antagonists” (G. D. Searle & Co., priority 1987, dated 1989).)
